Several values for one entry are separate records, joined by “and”; a condition that tells them apart may be missing. Identical values can stand only once.
How the values were obtained:
[1] = mn = molality of the nth substance listed, in mol/kg; details: 101 kPa, Liquid
[2] = 101 kPa, Liquid

CCCCn1cc[n+](C)c1.[Br-] [1-butyl-3-methylimidazolium bromide] + C[S+](C)[O-]
[1]
Details | mass density [kg/m3]
293.15 K, m1 = 0.00417 | 1100.42
293.15 K, m1 = 0.00643 | 1100.53
293.15 K, m1 = 0.00951 | 1100.68
293.15 K, m1 = 0.01236 | 1100.82
293.15 K, m1 = 0.015 | 1100.95
293.15 K, m1 = 0.01784 | 1101.09
293.15 K, m1 = 0.02066 | 1101.23
293.15 K, m1 = 0.02307 | 1101.35
293.15 K, m1 = 0.02628 | 1101.51
293.15 K, m1 = 0.02848 | 1101.62
303.15 K, m1 = 0.00497 | 1090.6
303.15 K, m1 = 0.00823 | 1090.76
303.15 K, m1 = 0.01126 | 1090.91
303.15 K, m1 = 0.01409 | 1091.05
303.15 K, m1 = 0.01689 | 1091.19
303.15 K, m1 = 0.02008 | 1091.35
303.15 K, m1 = 0.02326 | 1091.51
303.15 K, m1 = 0.02642 | 1091.67
303.15 K, m1 = 0.02917 | 1091.82
303.15 K, m1 = 0.03153 | 1091.94
308.15 K, m1 = 0.00514 | 1085.66
308.15 K, m1 = 0.00817 | 1085.81
308.15 K, m1 = 0.01139 | 1085.97
308.15 K, m1 = 0.01418 | 1086.11
308.15 K, m1 = 0.01696 | 1086.25
308.15 K, m1 = 0.01992 | 1086.41
308.15 K, m1 = 0.02347 | 1086.59
308.15 K, m1 = 0.0264 | 1086.74
308.15 K, m1 = 0.02914 | 1086.88
308.15 K, m1 = 0.03167 | 1087.01
313.15 K, m1 = 0.00489 | 1080.7
313.15 K, m1 = 0.00769 | 1080.83
313.15 K, m1 = 0.01069 | 1080.98
313.15 K, m1 = 0.01325 | 1081.11
313.15 K, m1 = 0.01542 | 1081.23
313.15 K, m1 = 0.01934 | 1081.43
313.15 K, m1 = 0.02264 | 1081.6
313.15 K, m1 = 0.02575 | 1081.76
313.15 K, m1 = 0.02845 | 1081.9
313.15 K, m1 = 0.03154 | 1082.06

CCCCCCCCCCn1cc[n+](C)c1.[Br-] [1-decyl-3-methylimidazolium bromide] + C[S+](C)[O-]
[1]
Details | mass density [kg/m3]
293.15 K, m1 = 0.00402 | 1100.27
293.15 K, m1 = 0.00649 | 1100.3
293.15 K, m1 = 0.00933 | 1100.34
293.15 K, m1 = 0.01163 | 1100.38
293.15 K, m1 = 0.0141 | 1100.41
293.15 K, m1 = 0.0167 | 1100.45
293.15 K, m1 = 0.01877 | 1100.49
293.15 K, m1 = 0.02117 | 1100.53
293.15 K, m1 = 0.02341 | 1100.56
293.15 K, m1 = 0.02766 | 1100.63
303.15 K, m1 = 0.00542 | 1090.45
303.15 K, m1 = 0.00729 | 1090.48
303.15 K, m1 = 0.00969 | 1090.52
303.15 K, m1 = 0.01151 | 1090.55
303.15 K, m1 = 0.01339 | 1090.58
303.15 K, m1 = 0.01545 | 1090.61
303.15 K, m1 = 0.01741 | 1090.65
303.15 K, m1 = 0.01809 | 1090.66
303.15 K, m1 = 0.01996 | 1090.69
308.15 K, m1 = 0.00501 | 1085.49
308.15 K, m1 = 0.00676 | 1085.52
308.15 K, m1 = 0.01153 | 1085.59
308.15 K, m1 = 0.01415 | 1085.64
308.15 K, m1 = 0.01624 | 1085.68
308.15 K, m1 = 0.0184 | 1085.72
308.15 K, m1 = 0.02101 | 1085.76
308.15 K, m1 = 0.0233 | 1085.8
313.15 K, m1 = 0.00484 | 1080.52
313.15 K, m1 = 0.0071 | 1080.56
313.15 K, m1 = 0.00963 | 1080.6
313.15 K, m1 = 0.01229 | 1080.65
313.15 K, m1 = 0.01489 | 1080.69
313.15 K, m1 = 0.01739 | 1080.74
313.15 K, m1 = 0.0195 | 1080.78
313.15 K, m1 = 0.02205 | 1080.82
313.15 K, m1 = 0.02449 | 1080.87

CCCCCCCCCCCCn1cc[n+](C)c1.[Br-] [1-dodecyl-3-methylimidazolium bromide] + C[S+](C)[O-]
[1]
Details | mass density [kg/m3]
293.15 K, m1 = 0.00397 | 1100.23
293.15 K, m1 = 0.00623 | 1100.24
293.15 K, m1 = 0.00818 | 1100.25
293.15 K, m1 = 0.01037 | 1100.26
293.15 K, m1 = 0.01216 | 1100.26
293.15 K, m1 = 0.01421 | 1100.27
293.15 K, m1 = 0.01656 | 1100.28
293.15 K, m1 = 0.01857 | 1100.29
293.15 K, m1 = 0.02122 | 1100.3
293.15 K, m1 = 0.02403 | 1100.31
303.15 K, m1 = 0.00371 | 1090.4
303.15 K, m1 = 0.00614 | 1090.4
303.15 K, m1 = 0.00792 | 1090.41
303.15 K, m1 = 0.00994 | 1090.42
303.15 K, m1 = 0.0118 | 1090.43
303.15 K, m1 = 0.01399 | 1090.44
303.15 K, m1 = 0.01604 | 1090.45
303.15 K, m1 = 0.01817 | 1090.46
303.15 K, m1 = 0.01986 | 1090.47
303.15 K, m1 = 0.02211 | 1090.48
308.15 K, m1 = 0.00436 | 1085.43
308.15 K, m1 = 0.00683 | 1085.43
308.15 K, m1 = 0.00903 | 1085.45
308.15 K, m1 = 0.01149 | 1085.46
308.15 K, m1 = 0.01349 | 1085.47
308.15 K, m1 = 0.01606 | 1085.48
308.15 K, m1 = 0.01812 | 1085.49
308.15 K, m1 = 0.02147 | 1085.51
308.15 K, m1 = 0.02348 | 1085.52
308.15 K, m1 = 0.02922 | 1085.55
313.15 K, m1 = 0.00453 | 1080.48
313.15 K, m1 = 0.00685 | 1080.5
313.15 K, m1 = 0.00907 | 1080.51
313.15 K, m1 = 0.01123 | 1080.52
313.15 K, m1 = 0.01315 | 1080.53
313.15 K, m1 = 0.01625 | 1080.55
313.15 K, m1 = 0.01812 | 1080.56
313.15 K, m1 = 0.02054 | 1080.57
313.15 K, m1 = 0.02269 | 1080.59

CCCCCCCCn1cc[n+](C)c1.[Br-] [1-methyl-3-octylimidazolium bromide] + C[S+](C)[O-]
[1]
Details | mass density [kg/m3]
293.15 K, m1 = 0.00222 | 1100.28
293.15 K, m1 = 0.00411 | 1100.33
293.15 K, m1 = 0.00639 | 1100.39
293.15 K, m1 = 0.00868 | 1100.45
293.15 K, m1 = 0.01098 | 1100.51
293.15 K, m1 = 0.01287 | 1100.56
293.15 K, m1 = 0.0156 | 1100.63
293.15 K, m1 = 0.01754 | 1100.68
293.15 K, m1 = 0.01986 | 1100.74
293.15 K, m1 = 0.0222 | 1100.8
303.15 K, m1 = 0.00254 | 1090.41
303.15 K, m1 = 0.00588 | 1090.5
303.15 K, m1 = 0.00888 | 1090.58
303.15 K, m1 = 0.01151 | 1090.65
303.15 K, m1 = 0.01491 | 1090.74
303.15 K, m1 = 0.01758 | 1090.81
303.15 K, m1 = 0.02064 | 1090.89
303.15 K, m1 = 0.02333 | 1090.96
303.15 K, m1 = 0.02681 | 1091.05
303.15 K, m1 = 0.03031 | 1091.14
308.15 K, m1 = 0.00216 | 1085.43
308.15 K, m1 = 0.00471 | 1085.5
308.15 K, m1 = 0.00692 | 1085.56
308.15 K, m1 = 0.00913 | 1085.62
308.15 K, m1 = 0.01398 | 1085.75
308.15 K, m1 = 0.01624 | 1085.81
308.15 K, m1 = 0.01888 | 1085.88
308.15 K, m1 = 0.02155 | 1085.95
308.15 K, m1 = 0.02348 | 1086
308.15 K, m1 = 0.02616 | 1086.07
313.15 K, m1 = 0.00623 | 1080.57
313.15 K, m1 = 0.01004 | 1080.67
313.15 K, m1 = 0.01351 | 1080.76
313.15 K, m1 = 0.01667 | 1080.84
313.15 K, m1 = 0.01987 | 1080.92
313.15 K, m1 = 0.02275 | 1080.99
313.15 K, m1 = 0.02686 | 1081.09
313.15 K, m1 = 0.02946 | 1081.15
313.15 K, m1 = 0.03287 | 1081.23
313.15 K, m1 = 0.03631 | 1081.31

C[S+](C)[O-] [dimethyl sulfoxide]
[2]
Details | mass density
293.15 K | 1100.22 kg/m3
303.15 K | 1090.37 kg/m3 [middle of 4 runs]
308.15 K | 1085.41 kg/m3 and 1085.42 kg/m3
313.15 K | 1080.45 kg/m3 and 1080.43 kg/m3 and 1080.47 kg/m3

C[S+](C)[O-] [dimethyl sulfoxide] + CCCCCCCCCCCCn1cc[n+](C)c1.[Br-]
[1], m2 = 0
Details | mass density [kg/m3]
293.15 K | 1100.22
303.15 K | 1090.38
308.15 K | 1085.41
313.15 K | 1080.47

C[S+](C)[O-] [dimethyl sulfoxide] + CCCCCCCCCCn1cc[n+](C)c1.[Br-]
[1], m2 = 0
Details | mass density [kg/m3]
293.15 K | 1100.22
303.15 K | 1090.37
308.15 K | 1085.42
313.15 K | 1080.45

C[S+](C)[O-] [dimethyl sulfoxide] + CCCCCCCCn1cc[n+](C)c1.[Br-]
[1], m2 = 0
Details | mass density [kg/m3]
293.15 K | 1100.22
303.15 K | 1090.34
308.15 K | 1085.41
313.15 K | 1080.43

C[S+](C)[O-] [dimethyl sulfoxide] + CCCCn1cc[n+](C)c1.[Br-]
[1], m2 = 0
Details | mass density [kg/m3]
293.15 K | 1100.22
303.15 K | 1090.36
308.15 K | 1085.41
313.15 K | 1080.45
